Here are results for twelve compounds from ChEMBL document CHEMBL5370676, “KRAS-Degrading Compounds: A Novel Approach to Treat Cancer by Targeting Both Wild-Type and Mutated KRAS Forms” (ACS Med Chem Lett, 2023).

What is called DC50 is the concentration giving 50% degradation. As usually defined, the Emax is the size of the effect at its maximum, as opposed to the concentration needed.

What all share (assay type): cell-based
Experiment [1] deals with T1, von Hippel-Lindau disease tumor suppressor/GTPase KRas (Homo sapiens, UniProt P01116+P40337, G12D). The experiment can be described thus: PROTAC activity at VHL/N-terminal HiBit-tagged KRAS G12D mutant (unknown origin) in human GP5d cells assessed as induction of KRAS G12D protein degradation incubated for 18 hrs by Nano-Gio HiBiT assay. For orientation: The HiBiT peptide binds its large partner to form an active luciferase.

Experiment [2] concerns von Hippel-Lindau disease tumor suppressor/GTPase KRas (Homo sapiens), P01116+P40337 [G12D]. Description: PROTAC activity at VHL/HiBit-tagged KRAS G12D mutant (unknown origin) in human GP5d cells assessed as induction of KRAS G12D protein degradation incubated for 18 hrs by Nano-Gio HiBiT assay relative control.
For experiment [3], the target named is T1, von Hippel-Lindau disease tumor suppressor/GTPase KRas. Description: PROTAC activity at E3 ubiquitin ligase/N-terminal HiBit-tagged KRAS G12D mutant (unknown origin) in human GP5d cells assessed as induction of KRAS G12D protein degradation incubated for 18 hrs by Nano-Gio HiBiT assay.
Experiment [4] deals with von Hippel-Lindau disease tumor suppressor/GTPase KRas (Homo sapiens), P01116+P40337 [G12D]. Description: PROTAC activity at E3 ubiquitin ligase/N-terminal HiBit-tagged KRAS G12D mutant (unknown origin) in human GP5d cells assessed as induction of KRAS G12D protein degradation incubated for 18 hrs by Nano-Gio HiBiT assay relative to control.

Chain of von Hippel-Lindau disease tumor suppressor/GTPase KRas (Homo sapiens), P01116+P40337 [G12D] (P01116 whole entry G12D): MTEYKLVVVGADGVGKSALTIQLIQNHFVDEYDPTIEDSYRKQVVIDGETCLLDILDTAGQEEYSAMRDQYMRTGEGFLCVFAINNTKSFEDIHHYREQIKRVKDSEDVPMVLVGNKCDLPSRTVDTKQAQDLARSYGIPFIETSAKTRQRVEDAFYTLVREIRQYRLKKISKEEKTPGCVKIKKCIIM
Chain of von Hippel-Lindau disease tumor suppressor/GTPase KRas (Homo sapiens), P01116+P40337 [G12D] (P40337 whole entry partner): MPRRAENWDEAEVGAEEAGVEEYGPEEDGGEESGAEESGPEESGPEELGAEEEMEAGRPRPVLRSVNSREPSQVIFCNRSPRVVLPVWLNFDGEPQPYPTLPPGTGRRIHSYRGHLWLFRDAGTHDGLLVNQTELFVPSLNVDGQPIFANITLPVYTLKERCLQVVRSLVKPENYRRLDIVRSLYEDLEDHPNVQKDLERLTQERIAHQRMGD
T1 sequence (P01116 whole entry G12D, stated change not applied): as the sequence (P01116 whole entry G12D) above
T1 sequence (P40337 whole entry, stated change not applied): as the sequence (P40337 whole entry partner) above

Regarding `Cc1ncsc1-c1ccc(CNC(=O)[C@@H]2C[C@@H](O)CN2C(=O)C(c2cc(OCCCCN3CCCN(c4nccc(-c5noc([C@@]6(C)CCCc7sc(N)c(C#N)c76)n5)n4)[C@@H](C)C3)no2)C(C)C)cc1F` (some centres undefined), in experiment [1], the DC50 was 6.5 nM. Besides, in experiment [2], the maximal effect (Emax) came out at 92%.

In the case of `Cc1ncsc1-c1ccc(CNC(=O)[C@@H]2C[C@@H](O)CN2C(=O)C(c2cc(OCCCCN3CCCN(c4nccc(-c5noc([C@@]6(C)CCCc7sc(N)c(C#N)c76)n5)n4)[C@@H](C)C3)no2)C(C)C)cc1` (some centres undefined), the DC50 in experiment [1] turned out to be 2.7 nM. Also, the Emax in experiment [2] was found to be 91%.

For `Cc1ncsc1-c1ccc(CNC(=O)[C@@H]2C[C@@H](O)CN2C(=O)C(c2cc(OCCCCN3CCCN(c4nccc(-c5cc([C@@]6(C)CCCc7sc(N)c(C#N)c76)on5)n4)[C@@H](C)C3)no2)C(C)C)cc1` (some centres undefined), the 50% degradation concentration (DC50) in experiment [1] was found to be 4.3 nM. Also, the Emax in experiment [2] was found to be 94%.

Regarding `Cc1ncsc1-c1ccc(CNC(=O)[C@@H]2C[C@@H](O)CN2C(=O)C(c2cc(OCCCN3CCCN(c4nccc(-c5noc([C@@]6(C)CCCc7sc(N)c(C#N)c76)n5)n4)[C@@H](C)C3)no2)C(C)C)cc1` (some centres undefined), in experiment [1], the DC50 came to 6.4 nM. Further, the maximal effect (Emax) in experiment [2] stood at 94%.

Take `Cc1ncsc1-c1ccc([C@@H](NC(=O)[C@H]2C[C@H](O)CN2C(=O)[C@@H](C(C)C)n2cc(OCCCN3CCCN(c4nccc(-c5noc([C@@]6(C)CCCc7sc(N)c(C#N)c76)n5)n4)[C@@H](C)C3)nn2)[C@@H](O)C(C)C)cc1`: the half-maximal degradation concentration (DC50) in experiment [1] amounted to 1.2 nM. Further, in experiment [2], the Emax was 93%.

Take `Cc1ncsc1-c1ccc([C@H](NC(=O)[C@@H]2C[C@@H](O)CN2C(=O)[C@H](C(C)C)n2cc(OCCCCN3CCCN(c4nccc(-c5noc([C@@]6(C)CCCc7sc(N)c(C#N)c76)n5)n4)[C@@H](C)C3)nn2)[C@H](C)O)cc1` (single isomer, unassigned): in experiment [1], the DC50 was determined as 1.6 nM. Also, in experiment [2], the Emax was 94%.

For `Cc1ncsc1-c1ccc(CNC(=O)[C@@H]2C[C@@H](O)CN2C(=O)C(c2cc(OCCCCN3CCCN(c4nccc(-c5cc([C@@]6(C)CCCc7sc(N)c(C#N)c76)no5)n4)[C@@H](C)C3)no2)C(C)C)cc1` (single isomer, unassigned), the DC50 in experiment [1] turned out to be 8.9 nM. In addition, the maximum response (Emax) in experiment [2] turned out to be 92%.

Regarding `CC(C)C(C(=O)N1C[C@H](O)C[C@H]1C(=O)NCc1ccc(-n2ccnc2)cc1)c1cc(OCCCCN2CCCN(c3nccc(-c4noc([C@@]5(C)CCCc6sc(N)c(C#N)c65)n4)n3)[C@@H](C)C2)no1` (single isomer, unassigned), in experiment [3], the DC50 was found to be 6.7 nM. In addition, the Emax in experiment [4] was 93%.

Take `CC(C)C(C(=O)N1C[C@H](O)C[C@H]1C(=O)NCc1ccc(C#N)cc1)c1cc(OCCCCN2CCCN(c3nccc(-c4noc([C@@]5(C)CCCc6sc(N)c(C#N)c65)n4)n3)[C@@H](C)C2)no1` (single isomer, unassigned): the half-maximal degradation concentration (DC50) in experiment [3] was determined as 3.9 nM. Also, the Emax in experiment [4] stood at 91%.

On to `Cc1ncsc1-c1ccc([C@H](CO)NC(=O)[C@@H]2C[C@@H](O)CN2C(=O)[C@H](C(C)C)n2cc(OCCCC(C)N3CCCN(c4nccc(-c5noc([C@@]6(C)CCCc7sc(N)c(C#N)c76)n5)n4)[C@@H](C)C3)nn2)cc1` (single isomer, unassigned), for which the DC50 in experiment [1] worked out at 1.4 nM. The Emax in experiment [2] amounted to 94%.

On to `Cc1ncsc1-c1ccc([C@H](C)NC(=O)[C@@H]2C[C@@H](O)CN2C(=O)C(C(C)C)n2cc(OCCCCN3CCCN(c4nccc(-c5noc([C@@]6(C)CCCc7sc(N)c(C#N)c76)n5)n4)[C@@H](C)C3)nn2)cc1` (single isomer, unassigned), for which the 50% degradation concentration (DC50) in experiment [1] amounted to 1.5 nM. For the same compound, the Emax in experiment [2] was determined as 93%.

On to `CC(C)C(C(=O)N1C[C@H](O)C[C@H]1C(=O)NCc1ccc(-n2cncn2)cc1)c1cc(OCCCCN2CCCN(c3nccc(-c4noc([C@@]5(C)CCCc6sc(N)c(C#N)c65)n4)n3)[C@@H](C)C2)no1` (single isomer, unassigned), for which the DC50 in experiment [3] came out at 3.3 nM. For the same compound, the Emax in experiment [4] was determined as 93%.
